row,melting point [°C],Compound
1,212 to 214,CCSc1cc2ncc(C#N)c(Nc3cc(OC)c(Cl)cc3Cl)c2cc1OC
2,131 to 133,NS(=O)(=O)Oc1ccc(C(=O)c2ccccc2)cc1
3,66 to 76,NC(=O)CCCN(Cc1ccc(Cl)cc1)Cc1ccc(Cl)cc1
4,138 to 139,COc1ccc(C(=O)CC(=O)c2snc(Cl)c2Cl)cc1
5,119 to 120,O=C1CCc2cc(Cl)cc(Cl)c21
6,44 to 45,CC(O)c1cc2c(cn1)CCCC2 (stereo not drawn)
7,127 to 130,Cc1cc(C=O)ccc1-c1ccccc1C(F)(F)F
8,131 to 132,CCOC(=O)COc1ccc(C(=O)Nc2ccccc2S(=O)(=O)c2ccccc2C#N)cc1
9,284 to 286,CC(C)(O)Cn1c(CO)nc2c(N)nc3cc(OCc4ccccc4)ccc3c21
10,215 to 217,COc1ccc(-c2cncc(C#N)c2-c2ccc3[nH]ccc3c2)cc1OC
11,185 to 187,CCCCCCCCC(=O)NCc1ccc(C#N)cc1
12,97 to 98,O=C(N(Cc1cccnc1)c1ccc(F)cc1)C(F)(F)F
13,198 to 201,O=[N+]([O-])c1ccc2c(c1)S(=O)(=O)NCN2C1CC1
14,76 to 78,Cc1ccc(N)cc1C(=S)OC(C)(C)C
15,112 to 113,OCCC(c1ccccc1)C(O)(c1ccccc1)c1ccccc1 (stereo not drawn)
16,118 to 120,CN1CCC(c2cccc3ccc(-n4cnc5ncccc54)cc23)CC1
17,225 to 229,O=C(CCn1cnc2c(=O)[nH]cnc21)NCCO
18,229 to 231,NS(=O)(=O)c1ccc(NC(=O)Nc2ccccc2-c2ccccc2)cc1
19,122 to 123,Cc1sc(N)c(C(=O)c2ccc(Cl)cc2)c1C
20,162 to 163,CNc1nc(-c2cc3cccc(N(C)S(=O)(=O)c4cccs4)c3[nH]2)cs1
21,169 to 170,CC(O)c1cc(C(F)(F)F)cc(S(N)(=O)=O)c1 (stereo not drawn)
22,248 to 250,CC(=O)NC[C@H]1CN(c2ccc(C(=O)c3ccc4cnc(C)cn34)cc2)C(=O)O1
23,330,CC(=O)NC1c2ccccc2-c2[nH]c(=O)c3nccn3c21 (stereo not drawn)

row,melting point [°C],Compound
1,151 to 154,NC(=O)N(c1ccccc1)c1nc(Cl)nc(Cl)n1
2,283 to 286,CN(C)CCN1C(=O)N2[C@H](c3cccc(O)c3)c3[nH]c4ccc(Cl)cc4c3C[C@@]2(C)C1=O (racemic)
3,108 to 109,COC(=O)Cc1cccc(OC)c1OCCCc1cn(-c2ccc([N+](=O)[O-])cn2)nc1C(C)C
4,199 to 200,CN1CCC(C2(O)c3ccccc3COc3cc(Cl)ccc32)CC1 (stereo not drawn)
5,185 to 186,O=C1OCCN1CCN1C(=O)C2(COc3cc4c(cc32)CCO4)c2ccccc21 (stereo not drawn)
6,145 to 147,COc1ccc(-c2cc3ccccc3o2)cc1
7,125 to 127,CCCC(=O)OCC(CO)CCn1cnc2cnc(N)nc21 (stereo not drawn)
8,55,CCCC(Cc1ccc(OCCN2CCCCCC2)cc1)(C(=O)O)S(=O)(=O)c1ccc(OC)cc1 (stereo not drawn)
9,202 to 207,CCNCC1(O)CCN(c2cc3c(cc2F)c(=O)c(C(=O)O)cn3C2CC2)C1 (stereo not drawn)
10,46 to 48,CCCCCCCCCCC[C@H](CC(=O)N[C@@H](CO)C(=O)OCc1ccccc1)OC(=O)CCCCCC
11,262 to 266,CC(C)(CO)n1c(Cc2ccccc2)nc2c(Cl)nc3ccccc3c21
12,151 to 154,CNC(=O)c1ccc(-c2ccc3oc(C4CCN(C(=O)OC(C)C)CC4)nc3c2)cc1C
13,129 to 131,COc1cc(C(C)=O)ccc1OCCN1CCC(C(c2ccc(F)cc2)c2ccc(F)cc2)CC1
14,220,O=c1[nH]c2cccc3c2n1CCC(NCCO)C3O (stereo not drawn)
15,67,CCCCCCN(O)CCCCCC
16,102,CC(N)CN(C)C(=O)c1ccccc1 (stereo not drawn)
17,75,COC(=O)c1ncncc1OC
18,172 to 173,CCn1nc(-c2ccccc2)c(C(C)=O)c(Nc2cccc3ccc(C)nc23)c1=O
19,153 to 155,CCCCCCCCCCCCCCCCCCOc1cc(OCCCCc2ccc3cc(O)c(O)cc3c2)cc(N(CC(=O)O)CC(=O)O)c1
20,181,CCOC(=O)C1=C(N)OC(C)=C(C(C)=O)C1c1cccc([N+](=O)[O-])c1 (stereo not drawn)
21,155 to 158,Nc1nc(Cl)c2ncn(OCC(O)CO)c2n1 (stereo not drawn)
22,129 to 130,CCCCOc1ccccc1C=CC(=O)c1ccc(OC)c(OC)c1OC
23,106 to 107,CC(C)Nc1cccnc1N1CCN(C(=O)c2ccc(C(=O)NCCN3CCCCC3)cc2)CC1

row,melting point [°C],Compound
1,181 to 182,CC(C)c1ccc2c(c1)c(S(=O)(=O)c1ccccc1C(C)C)c(CC(C)(C)C(=O)O)n2Cc1ccc(Cl)cc1
2,165 to 167,NC1=NC(c2cccc(Oc3ccccc3)c2)N(c2cccc(Cc3ccccc3)c2)C(N)=N1 (stereo not drawn)
3,84 to 86,CC(C)(C)OC(=O)N1CCN(c2ccc(O)c(C=O)c2)CC1
4,272 to 273,Cn1ncc(C(=O)N2C[C@H]3C[C@@H]2CO3)c1C(=O)Nc1ccn2nc(-c3cccnc3)nc2c1
5,213 to 219,COc1cc2c(c3c1OC(C)(C)C3)C(c1cccc(NC(=O)c3cccnc3)c1)=NC(C)(C)C2
6,153 to 154,COc1cc(COc2nn(Cc3ccc(Oc4ccccc4)cc3)cc2C(=O)O)ccc1OCc1nc(-c2ccco2)oc1C
7,222 to 223,COc1ccccc1-n1c(-c2cc(-c3ccc(S(C)(=O)=O)cc3)c(N3CCOCC3)s2)nc2ccccc2c1=O
8,171 to 173,CS(=O)c1cc(C(C)(C)C)c(O)c(C(C)(C)C)c1 (stereo not drawn)
9,159 to 160,N#Cc1ccc(OCCCCCCOc2ccc(-c3cc4ccc(C#N)cc4o3)cc2)cc1
10,204 to 205,Cc1cc(-c2ccc(C(=O)N3CCN(S(=O)(=O)c4ccc5cc(Br)ccc5c4)CC3)cc2)ccn1
11,120,CC(=O)Nc1ccc(-c2cc(C(=O)c3ccc(Cl)cc3)sc2N2CCOCC2)cc1
12,164 to 168,Cn1c(COc2ccc(CC3SC(=O)NC3=O)cc2)nc2ccc(Oc3ccc(NC(=O)Nc4ccccc4)cc3)cc21 (stereo not drawn)
13,150 to 152,CCC(COC)Nc1nc(C)nc(N2CCc3cc(OC)cc(Cl)c32)c1I (stereo not drawn)
14,43 to 45,CNc1ccc(F)cc1C(C)=O
15,168,COc1ccc(S(=O)(=O)C2(C(=O)O)CCN(Cc3ccc(-c4ccccc4)cc3)CC2)cc1
16,234 to 236,COc1cc(Nc2c(C#N)cnc3c2sc2ccccc23)c(Cl)cc1Cl
17,233,O=C(Nc1cccc(S(=O)(=O)N2CCOCC2)c1)c1cnn2c(C(F)(F)F)cc(-c3ccc(C(F)(F)F)cc3)nc12
18,78,CCCCCCCCCc1ccc(-c2ccc(OCC(C)CC)nn2)cc1 (stereo not drawn)
19,184 to 186,Clc1ccc2c(NCc3ccccc3)c3cccn3nc2c1
20,80 to 81,CCN(CC)C(=O)c1ccc(OCCCl)cc1
21,109 to 114,CN(CC1CC(c2ccc(F)cc2)=NO1)C1CCC(c2ccc3[nH]c(=O)oc3c2)CC1 (stereo not drawn)
22,243 to 244,CN(C)c1nc2cc(NC(=O)c3c(C(=O)N4CC(F)C4)cnn3C)ccn2n1
23,167 to 168,O=C(NCc1cccs1)c1ccc(CN2C(=O)C3(COc4cc5c(cc43)CCO5)c3ccccc32)cc1 (stereo not drawn)

row,melting point [°C],Compound
1,110 to 113,CON=C(C(=O)O)c1csnn1
2,132 to 133,CC(C)n1c(=O)ccc2cnc(S(C)=O)nc21 (stereo not drawn)
3,254 to 256,Cc1c(Br)c(=O)n(C2CCCC2)c2nc(Nc3ccc(N4CCOCC4)nc3)ncc12
4,173,CCc1c(C)oc(-c2ccc(S(C)(=O)=O)cc2)c(Oc2ccc(F)cc2F)c1=O
5,171 to 172,C[C@H](O)CNc1nc(Oc2ccc(F)cc2F)cc2[nH]nc(-c3ccccc3Cl)c12
6,229 to 230,Cc1cc(-c2cc(Cl)ccc2Cl)n2ncc(C#N)c2n1
7,230 to 243,Nc1nc2cc3c(cc2[nH]1)OCO3
8,183,O=c1[nH]c2ccccc2n1CCCN1CCN(C(c2ccc(Cl)cc2)c2cccnc2)CC1 (stereo not drawn)
9,114 to 116,COc1ccc(C(C)(O)c2sc(C)nc2C)cc1 (stereo not drawn)
10,130 to 131,COC(=O)c1ccc(-c2cc[nH]n2)cc1Cl
11,82,CC[C@H](NS(=O)(=O)c1ccc(OC)cc1)C(=O)OC(C)(C)C
12,229 to 231,Cc1cc(O)ccc1-c1noc2cc(O)ccc12
13,111 to 112,C[C@@H](C(O)=S)c1cc(C(C)(C)C)c(O)c(C(C)(C)C)c1
14,266 to 268,CCc1noc(-c2cc3c(cn2)[nH]c2ccc(S(=O)(=O)N(C)C)cc23)n1
15,99 to 100,Cc1c(C)c2c(c(C)c1N)CC(C)(CN1CCN(CCc3ccccc3)CC1)O2 (stereo not drawn)
16,168 to 170,Cc1cc(Cl)c(C(=O)OC(C)c2nc3c(c(=O)n(C)c(=O)n3C)n2C)c(C)n1 (stereo not drawn)
17,285,O=C(O)CCCNC(=O)c1nc(Cl)c(Cl)[nH]1
18,170 to 172,C1=C(OCc2ccccc2)CCN(Cc2nc3ccccc3[nH]2)C1
19,183 to 184,CC(=O)Oc1ccc(-c2cnc[nH]c2=O)cc1OC(C)=O
20,87,CCOC(=O)C1=C(N(C)C)N=C(C)C(C(=O)OCC)C1c1ccccc1C(F)(F)F (stereo not drawn)
21,94.5 to 96.6,Nc1c2c(cc3c1CCC3)CCC2

row,Compound,melting point [°C]
1,Cc1cc(C)c(P(C(C)(C)C)C(C)(C)C)c(C)c1,36 to 37
2,Cc1ccc(C2CCN(CCc3c(C)[nH]c4ccccc34)CC2)cc1,192 to 194
3,CC12C=CC(=O)C=C1C1OC1C1C2CCC2(C)C(=O)CCC12 (stereo not drawn),182 to 194
4,C1=C(c2ccc(-n3ccnc3)cc2)CCNC1,150 to 153
5,c1ccc2c(c1)c1ccccc1n2-c1ccc2c(c1)Oc1ccc(-n3c4ccccc4c4ccccc43)cc1O2,348
6,Cc1ccccc1NC1(C#N)CCN(C(=O)c2cc(C(F)(F)F)cc(C(F)(F)F)c2)CC1,141 to 142
7,Cc1nc2cc(NC(=O)c3cc4cc(C(F)(F)F)cnc4n3Cc3cccc(F)c3)ccc2s1,204 to 206
8,N#Cc1nn(-c2c(Cl)cc(C(F)(F)F)cc2Cl)c(I)c1SC(F)(F)F,187 to 188
